{"source": "PubChem BioAssay AID2060502", "about": "(Molecular Pharmacology Branch, DTP, NCI, 2025);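 also: spheroids exposed to agents for seven days before readout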;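 as to viability, T/C: percent of vehicle control viability where 100% = DMSO wells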", "test_system": "885724-159-R-J1-PDC complex spheroid viability", "assay": "Anticancer human tumor 885724-159-R-J1-PDC patient-derived pancreatic adenocarcinoma cell line growth inhibition [GQUAD]", "conditions": "for IC50: curve of first compound; for viability, T/C: stronger effect = lower value", "method_in_brief": "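Viability of tumor cells grown as complex spheroids with endothelial and stromal cells, exposed to drug combinations. Top concentration at or near clinical Cmax (else 10 microM), diluted in half-log increments.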", "key": {"[1]": {"conditions": "second compound 0.0316 µM, first compound 0.0316 µM"}, "[2]": {"conditions": "second compound 0.0316 µM, first compound 0.1 µM"}, "[3]": {"conditions": "second compound 0.0316 µM, first compound 0.316 µM"}, "[4]": {"conditions": "second compound 0.0316 µM, first compound 1 µM"}, "[5]": {"conditions": "second compound 0.0316 µM, first compound 3.16 µM"}, "[6]": {"conditions": "second compound 0.0316 µM, first compound 10 µM"}, "[7]": {"conditions": "second compound 0.1 µM, first compound 0.0316 µM"}, "[8]": {"conditions": "second compound 0.1 µM, first compound 0.1 µM"}, "[9]": {"conditions": "second compound 0.1 µM, first compound 0.316 µM"}, "[10]": {"conditions": "second compound 0.1 µM, first compound 1 µM"}, "[11]": {"conditions": "second compound 0.1 µM, first compound 3.16 µM"}, "[12]": {"conditions": "second compound 0.1 µM, first compound 10 µM"}, "[13]": {"conditions": "second compound 0.316 µM, first compound 0.0316 µM"}, "[14]": {"conditions": "second compound 0.316 µM, first compound 0.1 µM"}, "[15]": {"conditions": "second compound 0.316 µM, first compound 0.316 µM"}, "[16]": {"conditions": "second compound 0.316 µM, first compound 1 µM"}, "[17]": {"conditions": "second compound 0.316 µM, first compound 3.16 µM"}, "[18]": {"conditions": "second compound 0.316 µM, first compound 10 µM"}, "[19]": {"conditions": "second compound 1 µM, first compound 0.0316 µM"}, "[20]": {"conditions": "second compound 1 µM, first compound 0.1 µM"}, "[21]": {"conditions": "second compound 1 µM, first compound 0.316 µM"}, "[22]": {"conditions": "second compound 1 µM, first compound 1 µM"}, "[23]": {"conditions": "second compound 1 µM, first compound 3.16 µM"}, "[24]": {"conditions": "second compound 1 µM, first compound 10 µM"}, "[25]": {"conditions": "second compound 3.16 µM, first compound 0.0316 µM"}, "[26]": {"conditions": "second compound 3.16 µM, first compound 0.1 µM"}, "[27]": {"conditions": "second compound 3.16 µM, first compound 0.316 µM"}, "[28]": {"conditions": "second compound 3.16 µM, first compound 1 µM"}, "[29]": {"conditions": "second compound 3.16 µM, first compound 3.16 µM"}, "[30]": {"conditions": "second compound 3.16 µM, first compound 10 µM"}, "[31]": {"conditions": "second compound 10 µM, first compound 0.0316 µM"}, "[32]": {"conditions": "second compound 10 µM, first compound 0.1 µM"}, "[33]": {"conditions": "second compound 10 µM, first compound 0.316 µM"}, "[34]": {"conditions": "second compound 10 µM, first compound 1 µM"}, "[35]": {"conditions": "second compound 10 µM, first compound 3.16 µM"}, "[36]": {"conditions": "second compound 10 µM, first compound 10 µM"}}}
{"smiles": "CC1COCCN1c1cc(C2(S(C)(=N)=O)CC2)nc(-c2ccnc3[nH]ccc23)n1", "note": "(centres undefined) + Cc1[nH]c2ccc(F)cc2c1-c1nc2c3cccnc3c3ncccc3c2[nH]1", "values": [{"measurement": "IC50", "setting": "second compound 0.0316 µM", "result": "> 10", "unit": "µM"}, {"measurement": "IC50", "setting": "second compound 0.1 µM", "result": "> 10", "unit": "µM"}, {"measurement": "IC50", "setting": "second compound 0.316 µM", "result": "> 10", "unit": "µM"}, {"measurement": "IC50", "setting": "second compound 1 µM", "result": "> 10", "unit": "µM"}, {"measurement": "IC50", "setting": "second compound 3.16 µM", "result": 0.137, "unit": "µM"}, {"measurement": "IC50", "setting": "second compound 10 µM", "result": "> 10", "unit": "µM"}, {"measurement": "viability, T/C", "setting": "[1]", "result": 105, "unit": "%"}, {"measurement": "viability, T/C", "setting": "[2]", "result": 113, "unit": "%"}, {"measurement": "viability, T/C", "setting": "[3]", "result": 103, "unit": "%"}, {"measurement": "viability, T/C", "setting": "[4]", "result": 90.3, "unit": "%"}, {"measurement": "viability, T/C", "setting": "[5]", "result": 95.7, "unit": "%"}, {"measurement": "viability, T/C", "setting": "[6]", "result": 76.2, "unit": "%"}, {"measurement": "viability, T/C", "setting": "[7]", "result": 110, "unit": "%"}, {"measurement": "viability, T/C", "setting": "[8]", "result": 103, "unit": "%"}, {"measurement": "viability, T/C", "setting": "[9]", "result": 95.7, "unit": "%"}, {"measurement": "viability, T/C", "setting": "[10]", "result": 103, "unit": "%"}, {"measurement": "viability, T/C", "setting": "[11]", "result": 77.2, "unit": "%"}, {"measurement": "viability, T/C", "setting": "[12]", "result": 68.1, "unit": "%"}, {"measurement": "viability, T/C", "setting": "[13]", "result": 90.3, "unit": "%"}, {"measurement": "viability, T/C", "setting": "[14]", "result": 99.9, "unit": "%"}, {"measurement": "viability, T/C", "setting": "[15]", "result": 93.6, "unit": "%"}, {"measurement": "viability, T/C", "setting": "[16]", "result": 93.6, "unit": "%"}, {"measurement": "viability, T/C", "setting": "[17]", "result": 92.4, "unit": "%"}, {"measurement": "viability, T/C", "setting": "[18]", "result": 67.6, "unit": "%"}, {"measurement": "viability, T/C", "setting": "[19]", "result": 81.8, "unit": "%"}, {"measurement": "viability, T/C", "setting": "[20]", "result": 72.5, "unit": "%"}, {"measurement": "viability, T/C", "setting": "[21]", "result": 78.8, "unit": "%"}, {"measurement": "viability, T/C", "setting": "[22]", "result": 68.7, "unit": "%"}, {"measurement": "viability, T/C", "setting": "[23]", "result": 66.6, "unit": "%"}, {"measurement": "viability, T/C", "setting": "[24]", "result": 64.1, "unit": "%"}, {"measurement": "viability, T/C", "setting": "[25]", "result": 62.5, "unit": "%"}, {"measurement": "viability, T/C", "setting": "[26]", "result": 43.8, "unit": "%"}, {"measurement": "viability, T/C", "setting": "[27]", "result": 56, "unit": "%"}, {"measurement": "viability, T/C", "setting": "[28]", "result": 36.3, "unit": "%"}, {"measurement": "viability, T/C", "setting": "[29]", "result": 48.3, "unit": "%"}, {"measurement": "viability, T/C", "setting": "[30]", "result": 36, "unit": "%"}, {"measurement": "viability, T/C", "setting": "[31]", "result": 68.1, "unit": "%"}, {"measurement": "viability, T/C", "setting": "[32]", "result": 77.2, "unit": "%"}, {"measurement": "viability, T/C", "setting": "[33]", "result": 67.5, "unit": "%"}, {"measurement": "viability, T/C", "setting": "[34]", "result": 74.3, "unit": "%"}, {"measurement": "viability, T/C", "setting": "[35]", "result": 61.1, "unit": "%"}, {"measurement": "viability, T/C", "setting": "[36]", "result": 54.7, "unit": "%"}]}
{"smiles": "COc1ccc([C@@H](O)c2cc(-c3ncnc4cc(N5CCOCC5)ccc34)c(F)cc2Cl)nn1", "note": "+ Cc1[nH]c2ccc(F)cc2c1-c1nc2c3cccnc3c3ncccc3c2[nH]1", "values": [{"measurement": "IC50", "setting": "second compound 0.0316 µM", "result": 6.88, "unit": "µM"}, {"measurement": "IC50", "setting": "second compound 0.1 µM", "result": 5.43, "unit": "µM"}, {"measurement": "IC50", "setting": "second compound 0.316 µM", "result": 5.28, "unit": "µM"}, {"measurement": "IC50", "setting": "second compound 1 µM", "result": 3.28, "unit": "µM"}, {"measurement": "IC50", "setting": "second compound 3.16 µM", "result": "< 0.0316", "unit": "µM"}, {"measurement": "IC50", "setting": "second compound 10 µM", "result": 3.51, "unit": "µM"}, {"measurement": "viability, T/C", "setting": "[1]", "result": 101, "unit": "%"}, {"measurement": "viability, T/C", "setting": "[2]", "result": 110, "unit": "%"}, {"measurement": "viability, T/C", "setting": "[3]", "result": 108, "unit": "%"}, {"measurement": "viability, T/C", "setting": "[4]", "result": 94, "unit": "%"}, {"measurement": "viability, T/C", "setting": "[5]", "result": 68.5, "unit": "%"}, {"measurement": "viability, T/C", "setting": "[6]", "result": 41.2, "unit": "%"}, {"measurement": "viability, T/C", "setting": "[7]", "result": 99, "unit": "%"}, {"measurement": "viability, T/C", "setting": "[8]", "result": 97, "unit": "%"}, {"measurement": "viability, T/C", "setting": "[9]", "result": 90.5, "unit": "%"}, {"measurement": "viability, T/C", "setting": "[10]", "result": 82.3, "unit": "%"}, {"measurement": "viability, T/C", "setting": "[11]", "result": 57.7, "unit": "%"}, {"measurement": "viability, T/C", "setting": "[12]", "result": 40.5, "unit": "%"}, {"measurement": "viability, T/C", "setting": "[13]", "result": 92, "unit": "%"}, {"measurement": "viability, T/C", "setting": "[14]", "result": 97.8, "unit": "%"}, {"measurement": "viability, T/C", "setting": "[15]", "result": 83.6, "unit": "%"}, {"measurement": "viability, T/C", "setting": "[16]", "result": 65.7, "unit": "%"}, {"measurement": "viability, T/C", "setting": "[17]", "result": 66.5, "unit": "%"}, {"measurement": "viability, T/C", "setting": "[18]", "result": 36.2, "unit": "%"}, {"measurement": "viability, T/C", "setting": "[19]", "result": 76.1, "unit": "%"}, {"measurement": "viability, T/C", "setting": "[20]", "result": 71.1, "unit": "%"}, {"measurement": "viability, T/C", "setting": "[21]", "result": 82.8, "unit": "%"}, {"measurement": "viability, T/C", "setting": "[22]", "result": 68.5, "unit": "%"}, {"measurement": "viability, T/C", "setting": "[23]", "result": 51, "unit": "%"}, {"measurement": "viability, T/C", "setting": "[24]", "result": 34.3, "unit": "%"}, {"measurement": "viability, T/C", "setting": "[25]", "result": 47.5, "unit": "%"}, {"measurement": "viability, T/C", "setting": "[26]", "result": 46.3, "unit": "%"}, {"measurement": "viability, T/C", "setting": "[27]", "result": 51.2, "unit": "%"}, {"measurement": "viability, T/C", "setting": "[28]", "result": 39.5, "unit": "%"}, {"measurement": "viability, T/C", "setting": "[29]", "result": 33.7, "unit": "%"}, {"measurement": "viability, T/C", "setting": "[30]", "result": 28.3, "unit": "%"}, {"measurement": "viability, T/C", "setting": "[31]", "result": 72.4, "unit": "%"}, {"measurement": "viability, T/C", "setting": "[32]", "result": 75.6, "unit": "%"}, {"measurement": "viability, T/C", "setting": "[33]", "result": 62.6, "unit": "%"}, {"measurement": "viability, T/C", "setting": "[34]", "result": 63.4, "unit": "%"}, {"measurement": "viability, T/C", "setting": "[35]", "result": 52.9, "unit": "%"}, {"measurement": "viability, T/C", "setting": "[36]", "result": 32.8, "unit": "%"}]}
